Measurements published in patent US20220281902A1, “MIT[…] IMPROVE METABOLIC SYNDROME DURING AGING” (The Board of Trustees of the Leland Stanford Junior …, priority 2019, published 2022).

Assays:
[1] = target: T1, cytochrome c oxidase (CcO) (Mus musculus, UniProt P00397); experiment: CcO activity in liver mitochondria of treated mice; assay type: in vivo
T1 construct: Mouse livers were extracted, and liver mitochondria were obtained using a mitochondria isolation kit; from tissue; host or cells: liver mitochondria of treated and control C57BL/6 mice, isolated with a Sigma-Aldrich mitochondria isolation kit; activity kit Sigma-Aldrich CYTOCOX1
Experimental: Measurement of CcO activity in liver mitochondria. Mouse livers were extracted, and liver mitochondria were obtained using a mitochondria isolation kit (Sigma-Aldrich). CcO activity in liver mitochondria was measured using a cytochrome c oxidase assay kit (Sigma-Aldrich, CYTOCOX1, USA.

[2] = test system: PGC-1α, NRF1, SIRT1, Atg5, PINK1, Parkin transcripts; experiment: qPCR of mitochondriogenesis transcripts and mitophagy markers; assay type: in vivo, mouse
Experimental: (§1) Gene expression & RT qPCR Analyses. Total RNA was isolated using a commercially available kit (OMEGA bio-tek, R6812-02) according to the manufacturer's instructions. cDNA was generated using the PrimeScript RT reagent kit (TAKARA, RR047A). Gene expression were determined by qPCR as described in the product manual. The analysis was evaluated by Bio-Rad Real-Time System (CFX Connect™).
(§2) RNAs from 10 mice (5 treated and 5 Ctrl.) VF fat or livers were isolated by using omega Bio-Tek reagents, and cDNA was transcribed by (TAKARA). qPCR was then performed by using iQ SYBR Green mastermix bioscience on a CFX96 Real-Time System/C1000 Thermal Cycler (Bio-Rad).

[3] = Body weight variations on high fat diet (HFD, 60% fat); assay type: in vivo, C57BL/6 mice; conditions: for body weight gain on HFD: after 8 weeks HFD; for BW contrast of treated vs control: end of 8-week HFD
Experimental: Animal experimentation. Male C57BL/6 mice (Shanghai SLAC Laboratory animal Co. Ltd) were group-housed in a barrier facility with 12-hr light/12-hr dark cycles. All mice received a regular chow diet ad libitum (PicoLab 5053 Rodent Diet 20; Lab Diets) except for HFD (40-60%) and CR models. The compound was then administered in drinking water ad libitum at either 90-100 or 100-120 mg/kg/day, based on the previously measured water consumption.
(§3) The C57BL/6 mice were maintained on a standard purified mouse diet (PicoLab 5053 Rodent Diet 20; Lab Diets) until they reached 2 months of age when the treatments started. The CR animals were subjected to a lifelong restriction on PicoLab 5053 Rodent Diet 20; Lab Diets, starting at 12 weeks of age, with a daily food allotment of 60% of that eaten by the ad lib animals. Besides CR animals, the C57BL/6 groups in this study were fed the standard high fat diet (HFD; 60 or 40% fat). Body weights were measured weekly at the same time each week. Food and water intake were measured once every month for 3-6 consecutive days at the same time each month. Water consumption was measured for 2 weeks prior to the start of administration. Compound was generated and modified for better permeability in to mitochondria, evaluated by HPLC, was 96%-97%. The administration began at 8 weeks of age and continued for 16 months, until they became 18-month-old. The drug solution was prepared weekly in small batches by dissolving the compound into autoclaved water at the respective doses and filtering sterilely. Aliquots were collected from each batch and measured by HPLC to confirm stability of the compound. Water bottles and cages were changed twice weekly. Fed and fasted blood samples were collected monthly at the same time each month from tail and used for glucose, insulin, blood cell counts, lipid analysis using assay kits (Robio, China) and HbA1C assay kit (Crystal chem, USA) following the manufacturer protocol. IPGTTs and ITTs were conducted throughout morning and early afternoon after fasting for 16-18 hrs. and 4 hrs., respectively, once before start of treatment administration began and every 3 months thereafter. Rectal body temperature was measured monthly, as described previously. Whole blood samples, and histopathology were analyzed after 14 months of treatment. Tissue samples were collected after 10-14 months from mice, sacrificed and used for WB and qPCR microarray, and other analyses. All animal studies were approved by the Shanghai Jiao Tong University Animal Studies Committee and were in accordance with NIH guidelines. (Number of mice; SD=30, HFD=10, CR=20).

[4] = DEXA body composition analysis and fat depot analysis; assay type: in vivo; conditions: 14 month old mice
[5] = test system: UCP1, UCP2, CIDEA, Cox8b transcripts; experiment: qPCR of thermoregulatory factors and beiging inducers; assay type: in vivo, mouse; conditions: brown fat, after 14 months of treatment
Experimental: as §1, §2

visceral fat adipocytes = experiment: Histological analysis of white adipocyte size in visceral fat (toluidine blue O); assay type: in vivo, mouse
Experimental: Fluorescent microscopy. Adipose tissue was harvested and fixed in 4% paraformaldehyde (SigmaP6148). Adipocyte size was measured by staining for toluidine blue O in 5-20 μm-thick sections, paraffin embedded (Cell Signalling Technology, Tissue-Tek O.C.T.). adipocyte differentiations assessed by Oil Red 0 staining.

3T3-L1 pre-adipocytes = experiment: In vitro adipocyte differentiation (Oil Red O, protein blotting); assay type: cell-based
p16, p21 transcripts = experiment: qPCR of DNA damage and WAT senescence markers; assay type: in vivo, mouse; conditions: WAT, after 14 months treatment
Experimental: as §1, §2

[6] = Intra-peritoneal glucose tolerance test (IPGTT); assay type: in vivo, C57BL/6 mice
Text: as §3, with “Fed and fasted blood samples were collected monthly at the same time each month from tail and used for glucose, insulin, blood cell counts, lipid analysis using assay kits (Robio, China) and HbA1C assay kit (Crystal chem, USA) following the manufacturer protocol. IPGTTs and ITTs were conducted throughout morning and early afternoon after fasting for 16-18 hrs. and 4 hrs., respectively, once before start of treatment administration began and every 3 months thereafter.” left out, “Tissue samples were collected after 10-14 months from mice, sacrificed and used for WB and qPCR microarray, and other analyses. All animal studies were approved by the Shanghai Jiao Tong University Animal Studies Committee and were in accordance with NIH guidelines. (Number of mice; SD=30, HFD=10, CR=20).” left out

[7] = Single IP injection, body temperature and clinical pathology; assay type: in vivo, C57BL/6 mice; conditions: Day 4
Experimental: Body temperature integration in mouse. Three groups of male C57BL/6 mice received a single injection of the inhibitor at dose-levels of 0 (vehicle=N/S), average μM and max μM and were then kept for an 80 minute observation period until the BT was stabilized. Treatment was performed as a slow injection, IP, under a dosage volume of 0.5 mL/kg.
Rectal temperature was measured using a conventional thermometer in all groups at 0, 10, 15, 20, 30, 40, 50, 60, 70 and 80 minutes and repeated three times in 3 days.

[8] = liver, 12- and 16-month chronic treatment

Q: What does the source list for `Cc1ncsc1CCOC(=O)C[P+](c1ccccc1)(c1ccccc1)c1ccccc1.[Br-]` [HG1a-1, (2-(2-(4-Methylthiazol-5-yl)Ethoxy)-2-Oxoethyl) Triphenylphosphonium Bromide]?
A: CcO inhibition activity ([1]; 2 month old mice): 67%; CcO function higher than controls of the same model ([1]; 12-month-long treated mice): about 20%; CcO function vs same age subjects receiving a single dose ([1]; 12-month-long treated mice): one-fold greater; CcO inhibition activity ([1]; 14 month old mice): 65%; Atg5 transcript level ([2]; adipose tissue): enhancement; Atg5 transcript level [2, 8]: noticeable upgrade; PINK1 transcript level [2, 8]: noticeable upgrade; Parkin transcript level [2, 8]: noticeable upgrade; SIRT1 transcript level ([2]; liver, longer course of treatment): significant enhancement; NRF1 transcript level ([2]; livers of aged mice): increased notably; PGC-1α transcript level ([2]; livers of aged mice): increased notably; BW gain on HFD ([3]; 14 month old mice already treated for 12 months, 8 week HFD): resisted the BW gain with HFD until 5 weeks; body weight gain on HFD ([3]; aged group (12 month old)): 12%; BW contrast of treated vs control ([3]; aged group): 13%; body weight gain on HFD ([3]; younger group (12 week old)): 18%; BW contrast of treated vs control ([3]; younger group): 2-4%; gonadal adipose mass [4]: valid reduction; sub-scapular brown adipose mass [4]: minor effect; body fat mass ([4]; DEXA): recognizable decrease; lean mass ([4]; DEXA): trivial changes; CIDEA expression amplified [5]: one-fold; Cox8b expression amplified [5]: 7 fold; UCP2 expression amplified [5]: > one-fold; UPC1 expression increase [5]: 20 fold; visceral fat adipocyte size and cell perimeter (visceral fat adipocytes; 5 month old treated mice): minor changes; adipocyte shrinkage in size and perimeter compared to control (visceral fat adipocytes; 12 month old treated mice): 3 fold; adipocyte differentiation (3T3-L1 pre-adipocytes; 3T3-L1, up to 14 days): poorly differentiated, immature adipocytes; protein abundance of Pparγ (3T3-L1 pre-adipocytes; 3T3-L1 cells): significant reduction; p16 expression decline (p16, p21 transcripts): 10 fold; p21 expression (p16, p21 transcripts): remained unchanged; glucose tolerance (IPGTT) ([6]; after 6 months): normal glucose tolerance; glucose tolerance (IPGTT) ([6]; young ages of 8 weeks and 12 weeks): mildly glucose-intolerant; clinical pathology (physicals) 24 h after treatment [7]: within the normal baseline range
